This passage reports IC50 and Ki results from ChEMBL document CHEMBL1268925 (J Med Chem, 2010).

For this test, the target named is T1, Dihydrofolate reductase (Bacillus anthracis, UniProt Q81R22).
T1 sequence (Q81R22 whole entry): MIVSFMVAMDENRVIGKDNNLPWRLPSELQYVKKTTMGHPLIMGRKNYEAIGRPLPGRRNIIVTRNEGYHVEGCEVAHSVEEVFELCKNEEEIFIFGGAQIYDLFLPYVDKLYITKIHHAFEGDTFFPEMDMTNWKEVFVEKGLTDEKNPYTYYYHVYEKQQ

Broadly, the IC50 is the concentration that inhibits the measured activity by half. Read a high IC50 as lower potency. The term Ki denotes the dissociation constant of the complex between target and ligand, obtained from inhibition or displacement. A higher Ki goes with weaker binding. Consider `CCc1nc(N)nc(N)c1C#CCc1cc(OC)ccc1-c1ccccc1`, for which the half-maximal inhibitory concentration (IC50) worked out at 7.7 µM and the Ki was determined as 2.59 µM.

Regarding `COc1cc(C(C)(C)C#Cc2c(C)nc(N)nc2N)cc(OC)c1OC`, the IC50 was found to be 12.7 µM and the affinity, expressed as Ki, was 4.28 µM.
